The results in this text go back to the supplement of paper PMC10307832.

Common to all, as to assay: relative viability (nuclei count vs DMSO), 5 days (fraction); higher = more cells survive
Compound in test [1]: C1=CC2=C(C=C(C(=C2N=C1)O)N=NC3=CC4=C(C=C3)C=C(C=C4)S(=O)(=O)O)S(=O)(=O)O + CC(=O)Nc1cccc(-n2c(=O)n(C3CC3)c(=O)c3c(Nc4ccc(I)cc4F)n(C)c(=O)c(C)c32)c1 [Trametinib] (partner 0.02 µM)
The procedure, abridged:
(§1)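 The day after seeding in 1536-well plates, lung cancer cell lines were treated by pin tool with a single drug, or with a fixed anchor-drug dose together with five library-drug doses (not always all listed) in √10 steps. After 5 days, a combined fix-and-stain solution (final 0.05% Triton X-100, 1% formaldehyde, 1 ug/ml Hoechst) was added. Nuclei counted on 4× images gave relative viability as treated counts over vehicle counts, reported as the median of duplicate plates.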

Compound in the test “AT-7519 + Vorinostat”: O=C(NC1CCNCC1)c1n[nH]cc1NC(=O)c1c(Cl)cccc1Cl [AT-7519] + O=C(CCCCCCC(=O)Nc1ccccc1)NO [Vorinostat] (partner 1 µM)
The procedure, abridged: as §1

Compound in test [2]: C1=CC2=C(C=C(C(=C2N=C1)O)N=NC3=CC4=C(C=C3)C=C(C=C4)S(=O)(=O)O)S(=O)(=O)O + Cc1nc(NC(=O)N2CCC[C@H]2C(N)=O)sc1-c1ccnc(C(C)(C)C(F)(F)F)c1 [Alpelisib] (partner 2 µM)
The procedure, abridged: as §1

Compound in test [3]: C1=CC2=C(C=C(C(=C2N=C1)O)N=NC3=CC4=C(C=C3)C=C(C=C4)S(=O)(=O)O)S(=O)(=O)O + N=C(N)NC(=N)NCCc1ccccc1 [Phenformin] (partner 250 µM)
The procedure, abridged:
as §1

Regarding LCLC-103H, the relative viability in test [1] (first compound 0.08 µM) was 0.661; in test [1] (first compound 0.253 µM), 0.706; in test [1] (first compound 0.8 µM) it was 0.658; in test [1] (first compound 2.53 µM), 0.667; in test [1] (first compound 8 µM), 0.675; with AT-7519 + Vorinostat (first compound 0.01 µM), 0.848. Moreover, the relative viability was determined as 0.774 with AT-7519 + Vorinostat (first compound 0.03162 µM); 0.768 with AT-7519 + Vorinostat (first compound 0.3162 µM); 0.814 in the test with AT-7519 + Vorinostat (first compound 1 µM); 1 in test [2] (first compound 0.08 µM); 0.948 in test [2] (first compound 0.253 µM); 0.945 in test [2] (first compound 0.8 µM). Besides, the relative viability in test [2] (first compound 2.53 µM) amounted to 0.899; in test [2] (first compound 8 µM) it was 1.14; in test [3] (first compound 0.08 µM), 0.33; in test [3] (first compound 0.253 µM), 0.356; in test [3] (first compound 0.8 µM), 0.298; in test [3] (first compound 2.53 µM), 0.358. Besides, the relative viability in test [3] (first compound 8 µM) amounted to 0.369.
LK-2: the relative viability in test [1] (first compound 0.08 µM) worked out at 0.795; in test [1] (first compound 0.253 µM), 0.602; in test [1] (first compound 0.8 µM) it was 0.607; in test [1] (first compound 2.53 µM) it was 0.776; in test [1] (first compound 8 µM) it was 0.552; in the test with AT-7519 + Vorinostat (first compound 0.01 µM), 0.247. For the same cell line, the relative viability in the test with AT-7519 + Vorinostat (first compound 0.03162 µM) was 0.258; with AT-7519 + Vorinostat (first compound 0.3162 µM), 0.332; in the test with AT-7519 + Vorinostat (first compound 1 µM), 0.241; in test [2] (first compound 0.08 µM) it was 1.12; in test [2] (first compound 0.253 µM) it was 1.1; in test [2] (first compound 0.8 µM), 1.12. The relative viability is 1.08 in test [2] (first compound 2.53 µM); 0.935 in test [2] (first compound 8 µM); 0.639 in test [3] (first compound 0.08 µM); 0.36 in test [3] (first compound 0.253 µM); 0.303 in test [3] (first compound 0.8 µM); 0.381 in test [3] (first compound 2.53 µM). The relative viability in test [3] (first compound 8 µM) amounted to 0.332.
As to LOU-NH91, the relative viability is 0.841 in test [1] (first compound 0.08 µM); 0.77 in test [1] (first compound 0.253 µM); 0.759 in test [1] (first compound 0.8 µM); 0.733 in test [1] (first compound 2.53 µM); 0.797 in test [1] (first compound 8 µM); 0.932 with AT-7519 + Vorinostat (first compound 0.01 µM). The relative viability with AT-7519 + Vorinostat (first compound 0.03162 µM) was found to be 1; with AT-7519 + Vorinostat (first compound 0.3162 µM), 0.897; with AT-7519 + Vorinostat (first compound 1 µM), 0.82; in test [2] (first compound 0.08 µM), 0.783; in test [2] (first compound 0.253 µM), 0.744; in test [2] (first compound 0.8 µM) it was 0.703. The relative viability in test [2] (first compound 2.53 µM) was determined as 0.761; in test [2] (first compound 8 µM), 0.675; in test [3] (first compound 0.08 µM), 0.644; in test [3] (first compound 0.253 µM), 0.74; in test [3] (first compound 0.8 µM), 0.706; in test [3] (first compound 2.53 µM), 0.712. Also, the relative viability in test [3] (first compound 8 µM) came to 0.607.
LU99A: the relative viability was 0.582 in test [1] (first compound 0.08 µM); 0.502 in test [1] (first compound 0.253 µM); 0.505 in test [1] (first compound 0.8 µM); 0.548 in test [1] (first compound 2.53 µM); 0.646 in test [1] (first compound 8 µM); 0.481 with AT-7519 + Vorinostat (first compound 0.01 µM). Besides, the relative viability was 0.462 with AT-7519 + Vorinostat (first compound 0.03162 µM); 0.469 with AT-7519 + Vorinostat (first compound 0.3162 µM); 0.448 with AT-7519 + Vorinostat (first compound 1 µM); 0.608 in test [2] (first compound 0.08 µM); 0.488 in test [2] (first compound 0.253 µM); 0.422 in test [2] (first compound 0.8 µM). Besides, the relative viability in test [2] (first compound 2.53 µM) was 0.582; in test [2] (first compound 8 µM), 0.514; in test [3] (first compound 0.08 µM), 0.989; in test [3] (first compound 0.253 µM), 0.796; in test [3] (first compound 0.8 µM), 0.869; in test [3] (first compound 2.53 µM), 0.721. Also, the relative viability in test [3] (first compound 8 µM) came to 0.631.
On to LXF-289, for which the relative viability worked out at 0.718 in test [1] (first compound 0.08 µM); 0.682 in test [1] (first compound 0.253 µM); 0.638 in test [1] (first compound 0.8 µM); 0.679 in test [1] (first compound 2.53 µM); 0.62 in test [1] (first compound 8 µM); 0.815 with AT-7519 + Vorinostat (first compound 0.01 µM). The relative viability with AT-7519 + Vorinostat (first compound 0.03162 µM) was 0.884; with AT-7519 + Vorinostat (first compound 0.3162 µM) it was 0.771; in the test with AT-7519 + Vorinostat (first compound 1 µM), 0.773; in test [2] (first compound 0.08 µM) it was 1.13; in test [2] (first compound 0.253 µM), 1.01; in test [2] (first compound 0.8 µM), 1.02. Moreover, the relative viability in test [2] (first compound 2.53 µM) came to 1.08; in test [2] (first compound 8 µM), 0.976; in test [3] (first compound 0.08 µM) it was 0.54; in test [3] (first compound 0.253 µM) it was 0.511; in test [3] (first compound 0.8 µM) it was 0.509; in test [3] (first compound 2.53 µM), 0.485. In addition, the relative viability in test [3] (first compound 8 µM) was 0.507.
Take NCI-H23: the relative viability in test [1] (first compound 0.08 µM) came to 0.39; in test [1] (first compound 0.253 µM) it was 0.319; in test [1] (first compound 0.8 µM) it was 0.392; in test [1] (first compound 2.53 µM), 0.443; in test [1] (first compound 8 µM), 0.346; with AT-7519 + Vorinostat (first compound 0.01 µM) it was 0.598. The relative viability with AT-7519 + Vorinostat (first compound 0.03162 µM) was 0.619; with AT-7519 + Vorinostat (first compound 0.3162 µM), 0.513; with AT-7519 + Vorinostat (first compound 1 µM), 0.4; in test [2] (first compound 0.08 µM), 0.753; in test [2] (first compound 0.253 µM) it was 0.676; in test [2] (first compound 0.8 µM), 0.614. Also, the relative viability stood at 0.705 in test [2] (first compound 2.53 µM); 0.807 in test [2] (first compound 8 µM); 0.869 in test [3] (first compound 0.08 µM); 0.805 in test [3] (first compound 0.253 µM); 0.694 in test [3] (first compound 0.8 µM); 0.786 in test [3] (first compound 2.53 µM). Moreover, in test [3] (first compound 8 µM), the relative viability turned out to be 0.83.
Take NCI-H322M: the relative viability in test [1] (first compound 0.08 µM) was 0.535; in test [1] (first compound 0.253 µM) it was 0.544; in test [1] (first compound 0.8 µM), 0.566; in test [1] (first compound 2.53 µM) it was 0.504; in test [1] (first compound 8 µM), 0.528; with AT-7519 + Vorinostat (first compound 0.01 µM), 0.846. For the same cell line, the relative viability with AT-7519 + Vorinostat (first compound 0.03162 µM) amounted to 0.982; with AT-7519 + Vorinostat (first compound 0.3162 µM) it was 0.731; with AT-7519 + Vorinostat (first compound 1 µM), 0.83; in test [2] (first compound 0.08 µM), 0.917; in test [2] (first compound 0.253 µM), 0.82; in test [2] (first compound 0.8 µM), 0.687. For the same cell line, the relative viability is 0.846 in test [2] (first compound 2.53 µM); 0.814 in test [2] (first compound 8 µM); 0.877 in test [3] (first compound 0.08 µM); 0.744 in test [3] (first compound 0.253 µM); 0.727 in test [3] (first compound 0.8 µM); 0.705 in test [3] (first compound 2.53 µM). Moreover, in test [3] (first compound 8 µM), the relative viability worked out at 0.809.
